Results as given in patent publication US20050037097A1, “PYRUVATE ENRICHED ONION EXTRACT” (priority 2003, published 2005).

Experiments:
[1] = Stability determination of pyruvate (pyruvate loss with or without hydrogen peroxide); assay type: physicochemical
[2] = Inhibition (%) of ABTS radical generation; assay type: biochemical; conditions: concentration was 0.005 mg/mL (footnote)
Method: All reagents used in this assay were prepared in phosphate buffered saline (PBS, 10 mM, pH 7.4). Sample solutions were prepared in PBS.
[…] Reaction was triggered by the addition of 120 μL of 10 mM hydrogen peroxide. Absorbance data of the reaction mixture were recorded after 10 min using a spectrophotometer set at 734 nm. Quercetin was used as a reference antioxidant.

[3] = Oxygen radical absorbance capacity (ORAC), β-carotene retention; assay type: biochemical; conditions: concentration was 0.005 mg/mL (footnote); PBS control 28
Method: A solution of 2,2′-azobis-(2-amidinopropane) dihydrochloride (AAPH, 0.5 M) was prepared in degassed distilled water and a β-carotene solution was prepared by centrifuging 10 mg of β-carotene in 10 mL of acetone followed by a one-fold dilution of the supernatant with the same solvent. β-carotene (60 μL) and 0.6% (w/v) phosphate buffered Tween 20 containing 0.3% (w/v) of linoleic acid (120 μL) were mixed with 935 μL of PBS in a quartz cuvette and incubated for 2 min at 50° C. 10 μL of sample solution (final assay concentration of 454 μg/mL) and AAPH (25 μL) were added into the cuvette and the reaction was monitored for 10 min using a spectrophotometer set at 452 nm. Quercetin was used as a reference antioxidant. Cuvette was maintained at 50° C. all times except when the measurement is being taken. Percentage β-carotene retention was calculated using the following equation: % β-carotene retention=100−[(Abs0 min−Abs5 min)*100 Abs0 min]

[4] = Total reducing power (pre-formed ABTS radical); assay type: biochemical; conditions: concentration was 0.005 mg/mL (footnote)
Method: ABTS radical was generated by mixing 5 mL of an aqueous ABTS solution (7 mM) and 88 μL of a potassium persulfate solution (140 mM), followed by the standing in the dark for 6 h. This stock solution (1.1 mL) was diluted to 90 mL with PBS (pH 7.4) and the absorbance adjusted to 0.83. […] Absorbance at 734 nm was measured after 10 min. Quercetin was used as a reference antioxidant. Total reducing power (TRP, %) was calculated using the following equations: […]+PBS(%)=[(Abs0 min-Abs10 min)/Abs0 min]*100 TRPSample=([…]

Row | pyruvate loss ([1]; with added hydrogen peroxide) | pyruvate loss ([1]; without added hydrogen peroxide) | SMILES | % inhibition of ABTS radical generation [2] | % TRP (ORAC in terms of β-Carotene retention) [3] | % TRP (total reducing power) [4]
1 | 11% | 26% | CC(=O)C(=O)O [pyruvic acid] | – | – | –
2 | – | – | O=c1c(O)c(-c2ccc(O)c(O)c2)oc2cc(O)cc(O)c12 [Quercetin] | 23% | 55% | 30%
